Laboratory results as given in PMC13626384 (Journal of medicinal chemistry, 2025).
Where two headings read alike, the source gives them in different places.

Key:
D283-med cell line = assay: Cytotoxicity against D283-med cells; format: cell-based, human
SF188 cell line = assay: Cytotoxicity against SF188 cells; format: cell-based, human
H460 cell line = assay: Cytotoxicity against H460 cells; format: cell-based; settings: read-out: H460 IC50; non-small cell lung cancer cell line
Plasma stability = format: in vitro ADME; settings: mouse plasma
[1] = target: human immunoproteasome (i20S) β5 (Homo sapiens, UniProt P20618+P28062); assay: Proteasome subunit inhibition, i20S β5; format: biochemical; settings: read-out: i20S β5 IC50 ± SD; read 60 to 90 minutes after start
[2] = target: human immunoproteasome (i20S) β2 (Homo sapiens, UniProt P40306+P49720); assay: Proteasome subunit inhibition, i20S β2; format: biochemical; settings: read-out: i20S β2 IC50 ± SD; read 60 to 90 minutes after start
[3] = target: human immunoproteasome (i20S) β1 (Homo sapiens, UniProt P28065+P40306); assay: Proteasome subunit inhibition, i20S β1; format: biochemical; settings: read-out: i20S β1 IC50 ± SD; read 60 to 90 minutes after start
[4] = PAMPA-BBB permeability assay; settings: PAMPA-BBB
Caco-2 cells = assay: Caco-2 cell permeability and efflux; format: in vitro ADME, human
[5] = Liver microsomal stability; settings: mouse liver microsomes
[6] = Caco-2 cell permeability and efflux; format: in vitro ADME, human; settings: human, Caco-2
[7] = read-out: D283-med IC50, medulloblastoma cell line
[8] = read-out: SF188 IC50, glioblastoma cell line

Compound: CC(C)C[C@H](NC(=O)[C@@H]1Cc2c(F)c(F)c(c(F)c2F)Sc2cccc(c2)CC(=O)N[C@@H]([C@@H](C)O)C(=O)N1)C(=O)[C@@]1(C)CO1 [Compound 14, (5S,8S)-3^2,3^3,3^5,3^6-Tetrafluoro-8-((R)-1-hydroxyethyl)-N-((S)-4-methyl-1-((R)-2-methyloxiran-2-yl)-1-oxopentan-2-yl)-7,10-dioxo-2-thia-6,9-diaza-1(1,3),3(1,4)-dibenzenacycloundecaphane-5-carboxamide]
- IC50 (D283-med cell line; [7]): 0.02 ± 0.001 µM
- IC50 (SF188 cell line; [8]): 0.04 ± 0.009 µM
- IC50 (H460 cell line): 0.186 ± 0.052 µM
- Plasma Stability % remaining (Plasma stability; after 5 hr): more than 75%
- IC50 [1]: 0.858 ± 0.342 µM
- IC50 [2]: 1.06 ± 0.171 µM
- IC50 [3]: 0.31 ± 0.0395 µM
- % Recovery [4]: 53%
- Mean Permeability [4]: 3.75 10^−6 cm/sec
- Pe (effective permeability) [4]: around 4 10^−6 cm s^−1

Compound: CC(C)C[C@H](NC(=O)[C@@H]1Cc2c(F)c(F)c(c(F)c2F)S(=O)(=O)c2cccc(c2)CC(=O)N[C@@H](C(C)(C)O)C(=O)N1)C(=O)[C@@]1(C)CO1 [Compound 24, (5S,8S)-3^2,3^3,3^5,3^6-Tetrafluoro-8-(2-hydroxypropan-2-yl)-N-((S)-4-methyl-1-((R)-2-methyloxiran-2-yl)-1-oxopentan-2-yl)-7,10-dioxo-2-thia-6,9-diaza-1(1,3),3(1,4)-dibenzenacycloundecaphane-5-carboxamide 2,2-dioxide]
- IC50 (D283-med cell line; [7]): 0.054 ± 0.002 µM
- IC50 (SF188 cell line; [8]): 0.1 ± 0.007 µM
- IC50 (H460 cell line): 0.41 ± 0.059 µM
- % Recovery [4]: 79%
- Mean Permeability [4]: 2.06 10^−6 cm/sec

Compound: CC(C)C[C@H](NC(=O)[C@@H]1Cc2c(F)c(F)c(c(F)c2F)S(=O)(=O)c2cccc(c2)CC(=O)N[C@@H]([C@H](C)O)C(=O)N1)C(=O)[C@@]1(C)CO1 [Compound 27, (5S,8S)-3^2,3^3,3^5,3^6-Tetrafluoro-8-((S)-1-hydroxyethyl)-N-((S)-4-methyl-1-((R)-2-methyloxiran-2-yl)-1-oxopentan-2-yl)-7,10-dioxo-2-thia-6,9-diaza-1(1,3),3(1,4)-dibenzenacycloundecaphane-5-carboxamide 2,2-dioxide]
- IC50 (D283-med cell line; [7]): 0.028 ± 0.01 µM
- IC50 (SF188 cell line; [8]): 0.072 ± 0.01 µM
- IC50 (H460 cell line): 0.36 ± 0.056 µM
- % Recovery [4]: 88%
- Mean Permeability [4]: 1.40 10^−6 cm/sec

Compound: CC(C)C[C@H](NC(=O)[C@@H]1Cc2c(F)c(F)c(c(F)c2F)S(=O)(=O)c2ccc(cc2)CCC(=O)N[C@@H](C(C)C)C(=O)N1)C(=O)[C@@]1(C)CO1 [Compound 29, (5S,8S)-3^2,3^3,3^5,3^6-Tetrafluoro-8-isopropyl-N-((S)-4-methyl-1-((R)-2-methyloxiran-2-yl)-1-oxopentan-2-yl)-7,10-dioxo-2-thia-6,9-diaza-1,3(1,4)-dibenzenacyclododecaphane-5-carboxamide 2,2-dioxide]
- IC50 (D283-med cell line; [7]): 0.146 ± 0.029 µM
- IC50 (SF188 cell line; [8]): 0.15 ± 0.012 µM
- IC50 (H460 cell line): 0.47 ± 0.154 µM

Compound: CC(C)C[C@H](NC(=O)[C@@H]1Cc2c(F)c(F)c(c(F)c2F)S(=O)(=O)c2cccc(c2)CC(=O)NCC(=O)N1)C(=O)[C@@]1(C)CO1 [Compound 32, (S)-32,33,35,36-Tetrafluoro-N-((S)-4-methyl-1-((R)-2-methyloxiran-2-yl)-1-oxopentan-2-yl)-7,10-dioxo-2-thia-6,9-diaza-1(1,3),3(1,4)-dibenzenacycloundecaphane-5-carboxamide 2,2-dioxide]
- IC50 (D283-med cell line; [7]): 0.563 ± 0.046 µM
- IC50 (SF188 cell line; [8]): 7.23 µM
- IC50 (H460 cell line): 4.54 µM

Compound: CC(C)C[C@H](NC(=O)[C@@H]1Cc2ccc(cc2)OCCCCCC(=O)N[C@@H](C(C)C)C(=O)N1)C(=O)[C@@]1(C)CO1 [Compound 33, (10S,13S)-10-Isopropyl-N-((S)-4-methyl-1-((R)-2-methyloxiran-2-yl)-1-oxopentan-2-yl)-8,11-dioxo-2-oxa-9,12-diaza-1(1,4)-benzenacyclotetradecaphane-13-carboxamide]
- IC50 (D283-med cell line; [7]): 0.0101 ± 0.0021 µM
- IC50 (SF188 cell line; [8]): 0.0122 ± 0.0004 µM
- IC50 (H460 cell line): 0.053 ± 0.015 µM
- IC50 [1]: 0.0329 ± 0.0059 µM
- IC50 [2]: 0.0674 ± 0.0084 µM
- IC50 [3]: 0.0817 ± 0.0086 µM
- % Recovery [4]: 87%
- Mean Permeability [4]: 1.49 10^−6 cm/sec

Compound: CC(C)C[C@H](NC(=O)[C@@H]1Cc2ccc(cc2)SCCCCCC(=O)NC(C)(C)C(=O)N1)C(=O)[C@@]1(C)CO1 [Compound 36, (S)-10,10-Dimethyl-N-((S)-4-methyl-1-((R)-2-methyloxiran-2-yl)-1-oxopentan-2-yl)-8,11-dioxo-2-thia-9,12-diaza-1(1,4)-benzenacyclotetradecaphane-13-carboxamide]
- IC50 (D283-med cell line; [7]): 1.44 µM
- IC50 (SF188 cell line; [8]): 2.26 µM
- IC50 (H460 cell line): 2.33 µM

Compound: CC(C)C[C@@H](NC(=O)[C@@H]1Cc2ccc(cc2)S(=O)(=O)CCCCCC(=O)NC(C)(C)C(=O)N1)C(=O)[C@@]1(C)CO1 [Compound 37, (S)-10,10-Dimethyl-N-((R)-4-methyl-1-((R)-2-methyloxiran-2-yl)-1-oxopentan-2-yl)-8,11-dioxo-2-thia-9,12-diaza-1(1,4)-benzenacyclotetradecaphane-13-carboxamide 2,2-dioxide]
- IC50 (D283-med cell line; [7]): 0.59 ± 0.02 µM
- IC50 (SF188 cell line; [8]): 4.42 µM
- IC50 (H460 cell line): 1.72 µM

Compound: CC(C)C[C@H](NC(=O)[C@@H]1Cc2ccc(cc2)S(=O)(=O)CCCCCC(=O)NC(C(C)C)C(=O)N1)C(=O)[C@@]1(C)CO1 (stereo partly drawn) [Compound 38, (13S)-10-Isopropyl-N-((S)-4-methyl-1-((R)-2-methyloxiran-2-yl)-1-oxopentan-2-yl)-8,11-dioxo-2-thia-9,12-diaza-1(1,4)-benzenacyclotetradecaphane-13-carboxamide 2,2-dioxide]
- IC50 (D283-med cell line; [7]): 0.016 ± 0.002 µM
- IC50 (SF188 cell line; [8]): 0.157 ± 0.045 µM
- IC50 (H460 cell line): 0.287 ± 0.042 µM
- % Recovery [4]: 99%
- Mean Permeability [4]: 0.27 10^−6 cm/sec

Compound: CC(C)C[C@H](NC(=O)[C@@H]1CSCCCCCCCCCC(=O)N[C@@H](C(C)C)C(=O)N1)C(=O)[C@@]1(C)CO1 [Compound 39]
- IC50 (D283-med cell line; [7]): 0.0148 ± 0.0023 µM
- IC50 (SF188 cell line; [8]): 0.02 ± 0.003 µM
- IC50 (H460 cell line): 0.079 ± 0.021 µM
- Plasma Stability % remaining (Plasma stability; after 2 hr): 87 after 2 hr %
- Plasma Stability % remaining (Plasma stability; after 5 hr): more than 75%
- Efflux Ratio (Caco-2 cells; Caco-2): 1.5
- % Recovery (A-B) (Caco-2 cells; Caco-2, A-B direction): 67%
- % Recovery (B-A) (Caco-2 cells; Caco-2, B-A direction): 74%
- Pe (A-B) (Caco-2 cells; Caco-2, apical to basolateral): 9.8 10^−6 cm/sec
- Pe (B-A) (Caco-2 cells; Caco-2, basolateral to apical): 14.6 10^−6 cm/sec
- IC50 [1]: 0.0639 ± 0.0072 µM
- IC50 [2]: 0.0453 ± 0.0031 µM
- IC50 [3]: 0.099 ± 0.0084 µM
- Microsomal Stability Clearance Category [5]: Medium
- Microsomal Stability mCLint [5]: 33 µL/min/mg
- Microsomal Stability t1/2 [5]: 42 min
- % Recovery [4]: 44%
- Mean Permeability [4]: 3.43 10^−6 cm/sec
- Pe (effective permeability) [4]: around 4 10^−6 cm s^−1

Compound: C[C@H]1O[C@@H](O[C@H]2[C@@H](O)C[C@H](O[C@H]3[C@@H](O)C[C@H](O[C@H]4CC[C@@]5(C)[C@H](CC[C@@H]6[C@@H]5C[C@@H](O)[C@]5(C)[C@@H](C7=CC(=O)OC7)CC[C@]65O)C4)O[C@@H]3C)O[C@@H]2C)C[C@H](O)[C@@H]1O [Digoxin, reference compound]
- Papp A→B [6]: 13 nm/s
- Papp B→A [6]: 130 nm/s

Compound: Cn1cc(CNCC2CCN(c3ncc(C(=O)NO)cn3)CC2)c2ccccc21 [Quisinostat, reference compound]
- IC50 (D283-med cell line; Homo sapiens, D283 Med, read-out: D283-med IC50, medulloblastoma cell line): 0.03 to 0.043 µM
- IC50 (D283-med cell line; [7]): 0.037 ± 0.002 µM
- IC50 (SF188 cell line; Homo sapiens, SF-188, read-out: SF188 IC50, glioblastoma cell line): 0.03 to 0.043 µM
- IC50 (SF188 cell line; [8]): 0.043 ± 0.002 µM
- IC50 (H460 cell line): 0.03 ± 0.003 µM

Compound: (5S,8S)-3^2,3^3,3^5,3^6-Tetrafluoro-8-isopropyl-9-methyl-N-((S)-4-methyl-1-((R)-2-methyloxiran-2-yl)-1-oxopentan-2-yl)-7,10-dioxo-2-thia-6,9-diaza-1(1,3),3(1,4)-dibenzenacycloundecaphane-5-carboxamide 2,2-dioxide [Compound 30]
- IC50 (D283-med cell line; [7]): 1.47 µM
- IC50 (SF188 cell line; [8]): 1.68 µM
- IC50 (H460 cell line): 3.2 µM

Compound: (5S,8S)-32,33,35,36-Tetrafluoro-8-isopropyl-N-((S)-4-methyl-1-((R)-2-methyloxiran-2-yl)-1-oxopentan-2-yl)-7,10-dioxo-2-thia-6,9-diaza-1,3(1,4)-dibenzenacyclododecaphane-5-carboxamide [Compound 18]
- IC50 (D283-med cell line; [7]): 0.232 ± 0.012 µM
- IC50 (SF188 cell line; [8]): 0.239 ± 0.01 µM
- IC50 (H460 cell line): 1.08 µM

Compound: (S)-10,10-Dimethyl-N-((S)-4-methyl-1-((R)-2-methyloxiran-2-yl)-1-oxopentan-2-yl)-8,11-dioxo-2-oxa-9,12-diaza-1(1,4)-benzenacyclotetradecaphane-13-carboxamide [Compound 34]
- IC50 (D283-med cell line; [7]): 2.08 µM
- IC50 (SF188 cell line; [8]): 2.91 µM
- IC50 (H460 cell line): 4.52 µM
